Test results: PubChem BioAssay (NCI)
Values joined by “and” are separate entries in the source; they are usually repeats but may differ in a detail not shown here. Equal entries are not always repeated.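 Protocol summary: plate cells (96-well), add compound at 5 concentrations, incubate 48 h, interpolate endpoints linearly. GI50 marks 50% less growth. The concentration for full growth arrest is given as TGI.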

Tests used:
Experiment in all cases: NCI anticancer screen, dose series, 48 h
[1] = tested on: SNB-19 CNS
[2] = tested on: LXFL 529 NSCLC
[3] = tested on: M19-MEL melanoma
[4] = tested on: SNB-78 CNS
[5] = tested on: M14 melanoma
[6] = tested on: SF-268 CNS
[7] = tested on: MALME-3M melanoma
[8] = tested on: HCC-2998 colon
[9] = tested on: DMS 273 small cell lung
[10] = tested on: UACC-62 melanoma
[11] = tested on: OVCAR-8 ovarian
[12] = tested on: DU-145 prostate

Structure (SMILES)	GI50 [1] [µM]	TGI [1] [µM]	TGI [2] [µM]	TGI [3] [µM]	TGI [4] [µM]	GI50 [5] [µM]	TGI [5] [µM]	GI50 [6] [µM]	TGI [6] [µM]	GI50 [7] [µM]	TGI [7]	TGI [8] [µM]	TGI [9] [µM]	TGI [10] [µM]	GI50 [11] [µM]	TGI [11] [µM]	GI50 [12] [µM]	TGI [12] [µM]
CC(C)c1ccc(O)c(=O)cc1	15.3	> 71.4	> 100	> 70.9	> 91.1	16.3	40.6	7.43	> 62.1	19.9	> 72 µM and 66.6 µM	> 100	> 46.3	21.8	3.54	> 100	9.43	–
O=C(CC(=O)c1ccccc1NC1=Cc2ccccc2C(=O)C1=O)C(=O)NC1=C(Cl)C(=O)c2ccccc2C1=O	–	16.7	8.6	0.931	8.79	–	4.12	–	11.8	–	2.49 µM	26.8	6.8	3.97	–	12.2	–	16.1
COc1cccc2c1C(=O)c1c(O)c3c(c(O)c1C2=O)C[C@@](O)(/C(C)=N\O)C[C@@H]3OC1CC(N)C(O)C(C)O1 (some centres not stated)	–	8.93	7.11	3.79	8.2	–	6.78	–	5.77	–	2.41 µM	3.04	4.52	2.94	–	11.8	–	5.74
N#Cc1nc(Nc2ccc([N+](=O)[O-])cc2)sc1N	–	> 95.1	> 100	> 100	> 93	–	66.8	–	> 100	–	> 91.4 µM	33.1	> 100	50.8	–	> 100	–	–
